These results are taken from patent US4483833A, “Process for selective removal of H2 S from mixtures containing H2 2 with heterocyclic tertiary aminoalkanols” (Exxon Research & Engineering Co., priority 1982, dated 1984).

Each structure is given as a SMILES string. Like-named read-outs stand apart in the source and are kept apart here.

Data set [1] is described as follows: Boiling point (volatility) of aminoalkanol. The format is physicochemical. From the text: Also, to insure operational efficiency with minimal losses of the amino compound, the amino compound should have a relatively low volatility. […]
It can be seen that in each case the boiling points increase relative to the respective parent compound while the pKa remains constant.

Data set [2] in a line: pKa of aminoalkanol. The format is physicochemical. The conditions noted are these: at 20° C.
For data set [3] the following is noted: pressure not stated; background; cited from earlier work.
Data set [4] can be described thus: 15N NMR chemical shift as a means of determining selectivity to H2S removal. The format is physicochemical. The conditions noted are these: 90% by wt. amine in 10% by wt. D2O, 35° C.; liquid ammonia at 25° C. as zero reference. On the procedure: Another means for determining whether an amino compound is selective to H2 S removal is by measuring its 15N nuclear magnetic resonance (NMR) chemical shift. […] D2 O at 35° C. is measured by a spectrometer using liquid (neat) ammonia at 25° C. as a zero reference value. For example, N-(2-hydroxyethoxyethyl)pyrrolidine (HEEP) has a ^15 N NMR chemical shift value of δ+53.2 ppm whereas diethylmonoethanolamine (DEAE), N-methyl-N-tertiarybutylaminoethoxyethanoland methyldiethanolamine (MDEA) have ^15 N NMR chemical shift values of δ+43.7, δ+45.0 and δ+27.4 ppm, respectively.

With `CC(CCO)N1CCCC1` (stereo not drawn) [H2BP, N-(4-hydroxy-2-butyl)pyrrolidine], in data set [1] (at 7 mm), the boiling point (commonly the temperature of boiling at a given pressure) was 98 °C. The pKa – broadly, the pH at which an ionisable group is half protonated – in data set [2] amounted to 10.25.
Turning to `CCN(CC)CCO` [DEAE, diethylmonoethanolamine], the boiling point in data set [3] was 161 °C.
In the case of `OCCCN1CCCC1` [HPP, N-(3-hydroxypropyl)pyrrolidine], the boiling point in data set [1] (at 13 mm) was found to be 103 °C. Moreover, the pKa in data set [2] is recorded as 10.21.
For `CC(O)CN1CCCC1` (stereo not drawn), the boiling point in data set [1] (at 14 mm) was determined as 75 °C. The molecule also gave a pKa in data set [2] of 10.20.
Consider `CN1CCCCC1CCO` (stereo not drawn) [MHEPi, N-methyl-2-hydroxyethylpiperidine], for which the boiling point in data set [1] (at 760 mm) was determined as 233 °C. In data set [2], this molecule came in with a pKa of 9.90.
As for `OCCCCN1CCCC1` [HBP, N-(4-hydroxybutyl) pyrrolidine], in data set [1] (at 2 mm), the boiling point amounted to 95 °C. For the same molecule, the pKa in data set [2] was found to be 10.21.
Consider `OCCCN1CCCCC1` [HPPi, N-(3-hydroxypropyl)piperidine], for which the boiling point in data set [1] (at 5 mm) came out at 97 °C. The molecule also registered a pKa in data set [2] of 10.2.
For `OCCOCCCN1CCCC1`, the boiling point in data set [1] (at 20 mm) turned out to be 140 °C. This molecule came in with a pKa in data set [2] of 10.20.
In turn, `OCCOCCN1CCCC1` [HEEP, N-(2-hydroxyethoxyethyl)pyrrolidine] returned a boiling point in data set [1] (at 5 mm) of 110 °C. In addition, the “15N NMR chemical shift (δ+)” value in data set [4] stood at 53.2 ppm. Moreover, the pKa in data set [2] was found to be 9.95.
In data set [1] (at 1 mm), `CC(O)COC(C)CN1CCCC1` (stereo not drawn) had a boiling point of 100 °C. The pKa in data set [2] is recorded as 10.20.
The molecule `OCCCN1CCCC1` [drawing 3] yielded a boiling point in data set [1] (at 13 mm) of 101 °C. The molecule further showed a pKa in data set [2] of 10.20.
In the case of `OCCN1CCCC1` [HEP, N-hydroxyethylpyrrolidine], the boiling point in data set [1] (at 13 mm) is 80 °C. Also, the pKa in data set [2] turned out to be 9.95.
